Data taken from ChEMBL document CHEMBL1201862, “PubChem BioAssay data set” (2004).
Calls of active or inactive are those of the source.

Legend:
Vero [1] = test: host cell viability loss, Vero E6 – synthesized analogs, cytotoxicity control for West Nile virus antiviral project, SAR follow-up (AID 2244); assay type: functional; details: Chlorocebus sabaeus
Vero [2] = test: inhibition of WNV-induced cytopathic effect – cell-based, CPE readout (AID 1621); assay type: functional; details: Chlorocebus sabaeus
[3] = A Cell Based Assay for the Identification of Probe candidate Compounds with Anti- Venezuelan Equine Encephalitis virus. [Related pubchem assays: 2409, 2419, 1621, 2238, 2405, 2024, 2065, 2402, 2414, 1635, 1650, 2244 ]; assay type: functional
Vero [4] = test: antiviral activity against WNV, CPE read-out – cell-based (AID 2419); assay type: functional; details: Chlorocebus sabaeus
Vero [5] = test: Vero 76 cell viability after compound exposure – Vero 76 cells, synthesized analogs, cytotoxicity control for West Nile virus antiviral project, SAR follow-up (AID 2414); assay type: functional; details: Chlorocebus sabaeus
Vero [6] = test: Vero cell viability after compound exposure – synthesized analogs, set II, cytotoxicity control for West Nile virus antiviral project, SAR follow-up (AID 2402); assay type: functional; details: Chlorocebus sabaeus
Vero [7] = test: antiviral protection of cells from WNV – synthesized analogs, SAR follow-up (AID 2238); assay type: functional, cell-based; details: Chlorocebus sabaeus
SUMO-activating enzyme [8] = biological target: T1, SUMO-activating enzyme (Homo sapiens, UniProt Q9UBT2); test: blockers of SAE1/SAE2–UBC9 SUMO transfer – biochemical, HTRF, uHTS, primary screen (AID 2006); assay type: protein-complex assay
Streptococcus = test: GAS UMAA2166 growth inhibition – luminescence, BacTiterGlo, counter-screen for streptokinase expression inhibitor project, dose response (AID 1915); assay type: functional, organism-based;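 note: potency for reduction of bacterial viability or growth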
[9] = biological target: Voltage-dependent T-type calcium channel subunit alpha-1H (Homo sapiens, UniProt O95180); test: human CACNA1H calcium influx blockade – cell-based, synthetic library set 1, calcium flux (AID 493022); assay type: functional
SUMO-activating enzyme [10] = biological target: T1, SUMO-activating enzyme; test: blockers of UBC9-mediated SUMO conjugation – biochemical, AlphaScreen, SUMOylation inhibitor project, confirmation (AID 2018); assay type: functional
[11] = tested on: Streptococcus sp. 'group A'; test: Streptococcus pyogenes SK(-)GAS viability under kanamycin – luminescence, BacTiterGlo, confirmation, counter-screen for streptokinase expression inhibitor project, dose response (AID 1900); assay type: functional, organism-based
[12] = biological target: T2, Apoptotic protease-activating factor 1 (Homo sapiens, UniProt O14727); assay type: functional
T2 sequence (O14727 whole entry): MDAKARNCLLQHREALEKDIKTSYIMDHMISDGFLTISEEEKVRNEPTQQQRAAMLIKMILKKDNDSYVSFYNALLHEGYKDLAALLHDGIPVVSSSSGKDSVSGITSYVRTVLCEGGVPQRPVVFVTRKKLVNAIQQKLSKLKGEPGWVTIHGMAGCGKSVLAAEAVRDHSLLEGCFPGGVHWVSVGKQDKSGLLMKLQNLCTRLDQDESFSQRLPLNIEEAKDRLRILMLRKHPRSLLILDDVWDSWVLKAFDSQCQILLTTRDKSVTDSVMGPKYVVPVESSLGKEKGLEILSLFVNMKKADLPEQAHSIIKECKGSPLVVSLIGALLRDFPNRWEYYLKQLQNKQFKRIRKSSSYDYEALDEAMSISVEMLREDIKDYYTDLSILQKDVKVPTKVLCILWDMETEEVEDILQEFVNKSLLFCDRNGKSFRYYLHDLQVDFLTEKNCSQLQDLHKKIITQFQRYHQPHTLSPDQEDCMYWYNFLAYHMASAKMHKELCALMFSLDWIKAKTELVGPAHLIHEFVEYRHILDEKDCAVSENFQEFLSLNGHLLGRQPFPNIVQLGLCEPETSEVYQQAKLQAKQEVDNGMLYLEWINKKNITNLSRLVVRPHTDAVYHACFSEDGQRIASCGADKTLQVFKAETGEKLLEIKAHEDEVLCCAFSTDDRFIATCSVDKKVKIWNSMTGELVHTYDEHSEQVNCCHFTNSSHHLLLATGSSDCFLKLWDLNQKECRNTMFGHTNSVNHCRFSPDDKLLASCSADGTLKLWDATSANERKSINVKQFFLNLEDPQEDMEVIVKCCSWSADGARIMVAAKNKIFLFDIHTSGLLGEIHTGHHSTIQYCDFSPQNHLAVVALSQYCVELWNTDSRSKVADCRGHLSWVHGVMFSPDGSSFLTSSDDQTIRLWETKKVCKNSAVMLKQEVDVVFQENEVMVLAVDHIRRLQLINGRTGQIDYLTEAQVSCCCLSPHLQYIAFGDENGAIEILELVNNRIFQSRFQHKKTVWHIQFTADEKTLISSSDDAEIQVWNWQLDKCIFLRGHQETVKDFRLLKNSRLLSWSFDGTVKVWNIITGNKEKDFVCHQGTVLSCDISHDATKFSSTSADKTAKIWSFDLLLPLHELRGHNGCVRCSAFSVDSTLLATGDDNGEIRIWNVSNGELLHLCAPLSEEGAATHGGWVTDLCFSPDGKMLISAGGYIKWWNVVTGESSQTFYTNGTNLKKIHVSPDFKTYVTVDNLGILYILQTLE

Nonstructural protein 1 = Nonstructural protein 1 (Influenza A virus, UniProt Q194T2); assay type: functional, Influenza A virus (A/California/07/2009(H1N1))
[13] = HepG2 cell cytotoxicity, dose response, cytotoxicity control for non-replicating M. tuberculosis project (AID 489018); assay type: functional; details: Mycobacterium tuberculosis
[14] = biological target: T3, Replicative DNA helicase DnaB (Mycobacterium tuberculosis, UniProt P9WMR3); test: DnaB intein splicing inhibitors, dose response, biochemical, cell-free fluorescence (AID 449749); assay type: functional
T3 sequence (P9WMR3 whole entry): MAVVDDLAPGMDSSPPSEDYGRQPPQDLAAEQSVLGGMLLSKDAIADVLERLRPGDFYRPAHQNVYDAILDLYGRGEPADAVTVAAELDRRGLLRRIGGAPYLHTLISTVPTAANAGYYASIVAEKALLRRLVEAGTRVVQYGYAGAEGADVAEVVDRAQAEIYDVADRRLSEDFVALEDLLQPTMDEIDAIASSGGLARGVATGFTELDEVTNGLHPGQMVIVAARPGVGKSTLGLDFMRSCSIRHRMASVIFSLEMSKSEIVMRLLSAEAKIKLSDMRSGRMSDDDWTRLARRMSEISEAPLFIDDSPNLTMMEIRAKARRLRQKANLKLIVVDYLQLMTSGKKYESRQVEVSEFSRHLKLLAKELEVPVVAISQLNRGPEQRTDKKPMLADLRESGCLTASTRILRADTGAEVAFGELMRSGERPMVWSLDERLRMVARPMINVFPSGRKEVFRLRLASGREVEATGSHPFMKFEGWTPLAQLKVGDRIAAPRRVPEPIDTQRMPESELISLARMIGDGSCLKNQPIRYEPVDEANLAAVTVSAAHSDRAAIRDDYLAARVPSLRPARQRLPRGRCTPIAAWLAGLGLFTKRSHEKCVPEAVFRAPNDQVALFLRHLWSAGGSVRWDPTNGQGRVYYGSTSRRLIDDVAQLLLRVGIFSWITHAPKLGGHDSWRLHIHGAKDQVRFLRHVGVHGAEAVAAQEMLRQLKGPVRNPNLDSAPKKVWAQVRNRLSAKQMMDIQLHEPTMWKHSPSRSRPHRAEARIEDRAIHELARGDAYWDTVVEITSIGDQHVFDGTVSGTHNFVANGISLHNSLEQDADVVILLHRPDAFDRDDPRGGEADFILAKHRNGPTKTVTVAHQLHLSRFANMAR

Protein RecA = biological target: T4, Protein RecA (Mycobacterium tuberculosis, UniProt P9WHJ3); test: Fluorescence Cell-Free Homogeneous Dose Retest to Identify Inhibitors of RecA-Intein Splicing Activity. [Related pubchem assays (depositor defined):AID2097, AID2223, AID489010, AID492950]; assay type: functional
T4 sequence (P9WHJ3 whole entry): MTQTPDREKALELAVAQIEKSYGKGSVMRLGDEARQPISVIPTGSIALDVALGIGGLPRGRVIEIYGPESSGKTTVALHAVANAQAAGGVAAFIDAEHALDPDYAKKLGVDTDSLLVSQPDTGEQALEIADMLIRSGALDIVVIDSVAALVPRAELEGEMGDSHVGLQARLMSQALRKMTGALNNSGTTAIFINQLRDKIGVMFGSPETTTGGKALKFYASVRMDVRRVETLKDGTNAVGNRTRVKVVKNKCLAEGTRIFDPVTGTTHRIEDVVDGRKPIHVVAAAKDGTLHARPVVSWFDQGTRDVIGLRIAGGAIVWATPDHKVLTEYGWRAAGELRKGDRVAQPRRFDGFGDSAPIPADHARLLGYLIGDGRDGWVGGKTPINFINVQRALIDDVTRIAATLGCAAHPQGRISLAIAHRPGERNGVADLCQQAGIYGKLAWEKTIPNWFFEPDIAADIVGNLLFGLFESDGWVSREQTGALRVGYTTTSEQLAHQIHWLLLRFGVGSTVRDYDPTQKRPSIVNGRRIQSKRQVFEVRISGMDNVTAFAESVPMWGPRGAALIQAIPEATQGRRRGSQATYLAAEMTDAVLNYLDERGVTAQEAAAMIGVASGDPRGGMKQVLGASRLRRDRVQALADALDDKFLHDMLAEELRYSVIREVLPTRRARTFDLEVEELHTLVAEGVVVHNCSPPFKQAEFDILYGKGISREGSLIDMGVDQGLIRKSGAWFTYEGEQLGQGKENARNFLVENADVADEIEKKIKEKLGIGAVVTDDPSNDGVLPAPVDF

[15] = biological target: T5, Ubiquitin-conjugating enzyme E2 N (Homo sapiens, UniProt P61088); assay type: functional;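 note: Dose-response confirmation in a TR-FRET assay detecting UBC13-driven polyubiquitin chain formation, inhibition measured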
T5 sequence (P61088 whole entry): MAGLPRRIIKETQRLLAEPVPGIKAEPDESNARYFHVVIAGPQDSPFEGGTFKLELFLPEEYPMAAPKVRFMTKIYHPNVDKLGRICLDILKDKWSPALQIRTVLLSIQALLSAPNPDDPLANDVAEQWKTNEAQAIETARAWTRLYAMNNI

cells = assay type: functional
[16] = Vero E6 cell cytotoxicity, dose response, cytotoxicity control for non-replicating M. tuberculosis project, secondary assay (AID 492998); assay type: functional, VeroE6; details: Vero C1008
[17] = THP-1 cell cytotoxicity, dose response, cytotoxicity control for non-replicating M. tuberculosis project (AID 489025); assay type: functional
[18] = biological target: T6, Kappa-type opioid receptor (Homo sapiens, UniProt P41145); test: SAR analysis of small molecule antagonists of the kappa opioid receptor via a luminescent beta-arrestin assay - Set 6. [Related pubchem assays (depositor defined):AID1777, AID1778, AID1785, AID1786, AID1966, AID2133, AID2136, AID2285]; assay type: functional
[19] = biological target: T6, Kappa-type opioid receptor; test: SAR analysis of Antagonists of the Kappa Opioid Receptor (KOR) using an Image-Based Assay - Set 4. [Related pubchem assays (depositor defined):AID1777, AID1785]; assay type: functional
[20] = biological target: T6, Kappa-type opioid receptor; test: SAR analysis of small molecule antagonists of the kappa opioid receptor via a luminescent beta-arrestin assay - Set 4. [Related pubchem assays (depositor defined):AID1777, AID1778, AID1785, AID1786, AID1966, AID2133, AID2136, AID2285]; assay type: functional
Mu-type opioid receptor = Mu-type opioid receptor (Homo sapiens, UniProt P35372); test: SAR Analysis of Antagonists of the MOR Receptor using an Image-Based Assay - Set 3. [Related pubchem assays (depositor defined):AID1777, AID1785, AID1786, AID1966, AID2133, AID2136, AID2284, AID2285, AID2420]; assay type: functional
[21] = biological target: Delta-type opioid receptor (Homo sapiens, UniProt P41143); test: SAR Analysis of Antagonists of the DOR Receptor using an Image-Based Assay - Set 3. [Related pubchem assays (depositor defined):AID1777, AID1785]; assay type: functional;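 note: U2OS cells expressing DOR1 and beta-arrestin GFP stimulated with 100 nM SNC80; imaging of GFP-tagged beta-arrestin moving into spots after receptor activation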
Sequence of Delta-type opioid receptor (P41143 whole entry): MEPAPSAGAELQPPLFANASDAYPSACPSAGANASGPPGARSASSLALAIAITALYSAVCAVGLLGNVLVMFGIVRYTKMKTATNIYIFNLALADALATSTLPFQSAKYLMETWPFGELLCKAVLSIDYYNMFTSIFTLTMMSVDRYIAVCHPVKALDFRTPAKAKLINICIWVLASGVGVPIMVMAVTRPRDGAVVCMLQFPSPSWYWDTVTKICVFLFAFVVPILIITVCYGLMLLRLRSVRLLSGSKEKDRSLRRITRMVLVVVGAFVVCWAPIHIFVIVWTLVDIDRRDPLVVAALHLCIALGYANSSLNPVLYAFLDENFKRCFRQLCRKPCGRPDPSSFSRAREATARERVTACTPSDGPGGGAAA

T6 sequence (P41145 whole entry): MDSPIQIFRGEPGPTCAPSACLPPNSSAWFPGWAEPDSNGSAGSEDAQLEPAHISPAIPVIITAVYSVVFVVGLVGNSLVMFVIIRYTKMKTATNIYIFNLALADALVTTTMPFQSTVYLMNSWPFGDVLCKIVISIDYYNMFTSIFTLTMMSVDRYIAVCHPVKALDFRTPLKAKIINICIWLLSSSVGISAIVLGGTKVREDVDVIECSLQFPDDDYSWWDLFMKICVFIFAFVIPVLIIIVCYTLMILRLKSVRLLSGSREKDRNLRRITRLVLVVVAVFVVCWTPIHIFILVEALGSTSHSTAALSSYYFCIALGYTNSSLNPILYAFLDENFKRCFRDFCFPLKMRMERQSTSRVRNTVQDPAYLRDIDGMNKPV
T1 sequence (Q9UBE0 whole entry): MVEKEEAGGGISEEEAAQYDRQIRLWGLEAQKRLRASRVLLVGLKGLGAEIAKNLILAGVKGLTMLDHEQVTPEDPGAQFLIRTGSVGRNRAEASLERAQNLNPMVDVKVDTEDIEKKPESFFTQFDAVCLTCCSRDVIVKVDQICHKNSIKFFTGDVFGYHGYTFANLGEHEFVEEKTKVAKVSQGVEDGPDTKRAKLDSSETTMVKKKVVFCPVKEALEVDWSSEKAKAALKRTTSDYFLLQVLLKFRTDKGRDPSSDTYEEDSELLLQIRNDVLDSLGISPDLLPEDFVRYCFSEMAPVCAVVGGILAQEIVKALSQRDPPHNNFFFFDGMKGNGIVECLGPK
T1 sequence (Q9UBT2 whole entry): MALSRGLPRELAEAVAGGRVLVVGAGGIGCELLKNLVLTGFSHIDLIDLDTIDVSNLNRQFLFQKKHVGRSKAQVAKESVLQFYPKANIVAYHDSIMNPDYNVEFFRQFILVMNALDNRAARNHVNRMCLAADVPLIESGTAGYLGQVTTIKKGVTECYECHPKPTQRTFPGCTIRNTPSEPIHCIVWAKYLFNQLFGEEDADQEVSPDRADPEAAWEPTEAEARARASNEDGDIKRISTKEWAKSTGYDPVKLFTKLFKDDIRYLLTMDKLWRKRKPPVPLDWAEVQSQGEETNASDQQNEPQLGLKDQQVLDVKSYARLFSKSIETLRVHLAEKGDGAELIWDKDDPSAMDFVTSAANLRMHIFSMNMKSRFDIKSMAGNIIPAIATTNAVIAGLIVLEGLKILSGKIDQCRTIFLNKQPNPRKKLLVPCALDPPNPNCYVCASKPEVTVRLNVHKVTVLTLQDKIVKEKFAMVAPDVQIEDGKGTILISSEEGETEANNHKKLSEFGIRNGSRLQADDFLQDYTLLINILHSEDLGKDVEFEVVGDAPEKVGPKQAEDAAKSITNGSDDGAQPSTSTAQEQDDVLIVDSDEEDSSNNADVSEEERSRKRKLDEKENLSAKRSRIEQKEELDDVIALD
Sequence of Nonstructural protein 1 (Q194T2 whole entry): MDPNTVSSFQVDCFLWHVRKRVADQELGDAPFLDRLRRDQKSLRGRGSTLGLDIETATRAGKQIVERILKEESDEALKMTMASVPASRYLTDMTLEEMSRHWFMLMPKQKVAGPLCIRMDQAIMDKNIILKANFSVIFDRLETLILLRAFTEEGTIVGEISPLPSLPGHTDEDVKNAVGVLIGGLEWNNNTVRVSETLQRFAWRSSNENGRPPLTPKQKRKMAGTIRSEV
Sequence of Mu-type opioid receptor (P35372 whole entry): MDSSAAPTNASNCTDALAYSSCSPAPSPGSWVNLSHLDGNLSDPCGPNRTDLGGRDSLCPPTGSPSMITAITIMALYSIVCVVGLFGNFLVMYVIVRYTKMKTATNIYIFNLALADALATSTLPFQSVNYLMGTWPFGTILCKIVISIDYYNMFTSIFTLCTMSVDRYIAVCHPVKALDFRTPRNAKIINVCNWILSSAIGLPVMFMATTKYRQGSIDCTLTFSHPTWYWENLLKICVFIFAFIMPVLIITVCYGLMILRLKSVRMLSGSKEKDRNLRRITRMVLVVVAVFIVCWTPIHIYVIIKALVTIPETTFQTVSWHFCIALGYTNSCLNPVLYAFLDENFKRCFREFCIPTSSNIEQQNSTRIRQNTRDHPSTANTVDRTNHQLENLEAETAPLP
Sequence of Voltage-dependent T-type calcium channel subunit alpha-1H (O95180 whole entry): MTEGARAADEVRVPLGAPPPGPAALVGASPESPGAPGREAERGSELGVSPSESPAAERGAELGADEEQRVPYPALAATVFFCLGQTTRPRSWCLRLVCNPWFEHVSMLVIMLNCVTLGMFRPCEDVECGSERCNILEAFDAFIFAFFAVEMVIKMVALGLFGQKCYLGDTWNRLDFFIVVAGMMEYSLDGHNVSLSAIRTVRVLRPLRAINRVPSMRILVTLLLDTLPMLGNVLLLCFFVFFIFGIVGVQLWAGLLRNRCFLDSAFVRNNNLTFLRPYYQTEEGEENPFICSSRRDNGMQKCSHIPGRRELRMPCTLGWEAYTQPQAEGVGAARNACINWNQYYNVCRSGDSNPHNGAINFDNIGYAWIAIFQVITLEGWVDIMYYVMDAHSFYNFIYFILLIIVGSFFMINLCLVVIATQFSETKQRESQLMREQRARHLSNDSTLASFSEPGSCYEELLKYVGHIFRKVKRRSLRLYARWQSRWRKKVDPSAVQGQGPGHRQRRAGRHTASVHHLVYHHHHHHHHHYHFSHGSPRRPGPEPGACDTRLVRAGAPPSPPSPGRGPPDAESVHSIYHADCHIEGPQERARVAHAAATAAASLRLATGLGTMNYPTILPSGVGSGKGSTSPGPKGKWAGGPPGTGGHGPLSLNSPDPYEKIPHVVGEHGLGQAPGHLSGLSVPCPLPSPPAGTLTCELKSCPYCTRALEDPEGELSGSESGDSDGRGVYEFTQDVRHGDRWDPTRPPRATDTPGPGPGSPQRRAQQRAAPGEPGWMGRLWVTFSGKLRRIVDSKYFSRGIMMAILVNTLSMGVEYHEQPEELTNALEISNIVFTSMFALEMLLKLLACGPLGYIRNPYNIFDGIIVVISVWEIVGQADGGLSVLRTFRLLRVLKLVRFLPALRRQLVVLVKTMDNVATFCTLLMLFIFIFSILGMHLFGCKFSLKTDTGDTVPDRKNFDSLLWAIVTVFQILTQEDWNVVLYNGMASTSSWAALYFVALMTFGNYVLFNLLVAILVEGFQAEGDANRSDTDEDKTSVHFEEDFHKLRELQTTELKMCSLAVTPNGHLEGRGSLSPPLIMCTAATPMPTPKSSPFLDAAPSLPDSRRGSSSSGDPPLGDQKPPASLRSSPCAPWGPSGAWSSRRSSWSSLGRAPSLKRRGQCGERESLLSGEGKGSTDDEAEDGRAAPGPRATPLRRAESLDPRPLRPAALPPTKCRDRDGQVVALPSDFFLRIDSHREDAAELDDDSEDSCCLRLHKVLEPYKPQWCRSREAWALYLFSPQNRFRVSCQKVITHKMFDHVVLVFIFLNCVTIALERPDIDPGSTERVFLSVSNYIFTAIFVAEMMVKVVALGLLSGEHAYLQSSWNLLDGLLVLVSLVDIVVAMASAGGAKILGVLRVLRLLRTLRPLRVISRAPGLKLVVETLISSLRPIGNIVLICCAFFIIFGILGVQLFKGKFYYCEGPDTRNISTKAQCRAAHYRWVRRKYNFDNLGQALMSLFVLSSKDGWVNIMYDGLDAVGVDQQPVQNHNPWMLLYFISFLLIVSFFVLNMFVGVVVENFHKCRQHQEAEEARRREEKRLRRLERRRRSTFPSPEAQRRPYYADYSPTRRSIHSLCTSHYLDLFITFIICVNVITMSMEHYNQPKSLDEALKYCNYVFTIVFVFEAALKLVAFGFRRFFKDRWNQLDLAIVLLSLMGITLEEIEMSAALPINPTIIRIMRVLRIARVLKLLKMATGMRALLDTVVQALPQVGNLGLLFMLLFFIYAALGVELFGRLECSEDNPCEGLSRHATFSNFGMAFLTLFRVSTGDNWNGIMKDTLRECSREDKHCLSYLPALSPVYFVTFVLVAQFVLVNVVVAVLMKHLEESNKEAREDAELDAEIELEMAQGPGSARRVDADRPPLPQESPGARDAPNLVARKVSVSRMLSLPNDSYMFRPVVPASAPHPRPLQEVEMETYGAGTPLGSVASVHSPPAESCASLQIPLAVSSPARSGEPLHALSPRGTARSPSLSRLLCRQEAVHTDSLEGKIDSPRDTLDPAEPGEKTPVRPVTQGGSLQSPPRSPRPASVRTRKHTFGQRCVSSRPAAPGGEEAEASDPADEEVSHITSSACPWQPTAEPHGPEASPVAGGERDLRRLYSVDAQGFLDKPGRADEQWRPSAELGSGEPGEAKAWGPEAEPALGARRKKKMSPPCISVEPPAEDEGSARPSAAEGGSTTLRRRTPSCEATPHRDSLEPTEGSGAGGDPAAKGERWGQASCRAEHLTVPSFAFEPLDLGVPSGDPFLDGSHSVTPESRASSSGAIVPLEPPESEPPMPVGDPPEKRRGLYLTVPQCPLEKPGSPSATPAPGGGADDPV

CCOC(=O)C1(Cc2ccccc2C(F)(F)F)CCN(C2CCN(C(C)C)CC2)CC1
active: CC50 (Vero [1]) 21.6 µM | IC50 (Vero [2]) 18.6 µM | IC50 [3] 6.36 µM | IC50 (Vero [4]) > 50 µM | CC50 (Vero [5]) > 133 µM | CC50 (Vero [6]) 31.5 µM | IC50 (Vero [7]) 36.5 µM

O=C(COc1ccc(Cl)cc1)Nc1nnc(-c2ccc3c(c2)CCCC3)o1
inactive: IC50 (SUMO-activating enzyme [10]) > 100 µM
active: IC50 (SUMO-activating enzyme [8]) 48.2 µM | EC50 (Streptococcus) 1.83 µM | EC50 [9] 2.8 µM | EC50 [11] 489 nM

CCOC(=O)C1=C(c2ccccc2)N=C(N)NC1c1ccc(OCc2ccc(C(=O)OC)cc2)cc1 (stereo unspecified)
active: IC50 [12] 26.8 µM | IC50 (Nonstructural protein 1) 62.3 µM | CC50 [13] > 20 µM | AC50 [14] 15.6 µM | EC50 (Protein RecA) 11.8 µM | IC50 (cells) 9.88 µM | CC50 [16] 18.2 µM | CC50 [17] 11.8 µM
inactive: IC50 [15] > 20 µM

Cc1ccc(S(=O)(=O)NCc2ccc(C(=O)NCCN3CCN(c4ccccc4)CC3)cc2)cc1
inactive: IC50 [18] > 20 µM | IC50 [19] > 32 µM | IC50 [20] > 20 µM | IC50 (Mu-type opioid receptor) > 32 µM | IC50 [21] > 32 µM
